Measurements reported in US12612637B2, “Compositions and methods for DHFR tunable protein regulation” (Obsidian Therapeutics, Inc., priority 2019, dated 2026).
Where two headings read alike, the source gives them in different places.

Columns and labels:
[1] = cited from earlier work; for Duration of action: in vivo
Jurkat cells = experiment: FACS GFP expression of transduced Jurkat cells treated with DMSO, 2 μM or 50 μM TMP; format: cell-based; details: 2 μM TMP or 50 μM TMP, 24 hours
Protocol: Clones selected from the final library after 4 rounds of sorting were cloned into pLVX.AcGFP.P2A.mcherry constructs and transduced into Jurkat cells for further characterization of DD activity. Transduced Jurkat cells were plated using 500,000 cells per well (1 ml total volume per well in 24 well plate) in duplicate for each condition. Cells were treated with DMSO (control), 2 μM TMP or 50 μM trimethoprim (TMP) for 24 hours prior to fluorescent activated cell sorting (FACS). Cells were characterized by FACS to determine their levels of GFP in the presence and absence of TMP.

| Molecule | Duration of action [1] | Cmax ([1]; IV) | Cmax ([1]; PO) | GFP expression upon addition of TMP (Jurkat cells) |
| --- | --- | --- | --- | --- |
| CN(Cc1cnc2nc(N)nc(N)c2n1)c1ccc(C(=O)N[C@@H](CCC(=O)O)C(=O)O)cc1 [Methotrexate] | >12 h | – | – | – |
| COc1cc(Cc2cnc(N)nc2N)cc(OC)c1OC [Trimethoprim] | 2 to 72 h | 25 µM | 1 µM | – |
| hDHFR-045: hDHFR (Y122I) library clone cloned into pLVX.AcGFP.P2A.mcherry construct | – | – | – | higher levels of GFP expression upon addition of TMP |
| hDHFR-046: hDHFR (Y122I) library clone cloned into pLVX.AcGFP.P2A.mcherry construct | – | – | – | higher levels of GFP expression upon addition of TMP |
